What was measured:
human EP3 receptor = molecular target: T1, human EP3 receptor (Homo sapiens, UniProt P43115); assay: Binding ability to human EP receptors ([3H]PGE2 displacement), EP3; details: membranes expressing human EP3; [3H]PGE2 2.5 nM; Cheng-Prusoff; read-out: pKi (M) EP3 (converted)
T1 construct: expressed in transfected cells
T1 sequence (P43115 1-390): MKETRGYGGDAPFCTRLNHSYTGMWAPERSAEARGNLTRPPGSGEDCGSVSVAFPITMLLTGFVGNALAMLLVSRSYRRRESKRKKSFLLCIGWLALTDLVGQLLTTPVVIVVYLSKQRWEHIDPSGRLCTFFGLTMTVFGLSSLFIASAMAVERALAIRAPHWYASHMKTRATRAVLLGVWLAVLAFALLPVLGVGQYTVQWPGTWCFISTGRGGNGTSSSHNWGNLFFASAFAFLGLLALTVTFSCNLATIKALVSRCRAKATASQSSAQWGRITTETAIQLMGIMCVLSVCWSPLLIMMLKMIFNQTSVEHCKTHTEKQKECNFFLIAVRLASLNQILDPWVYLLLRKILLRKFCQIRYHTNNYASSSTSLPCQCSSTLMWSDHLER
Protocol: (§1) Membranes were prepared from cells stably transfected with human EP receptor cDNA. In brief, cells were cultured to confluency, scraped from culture flasks, and centrifuged (800 g, 8 minutes, 4° C.). Cells were twice washed in ice cold homogenisation buffer containing 10 mMTris-HCl, 1 mM EDTA.2Na, 250 mM sucrose, 1 mM PMSF, 0.3 mM indomethacin, pH 7.4, homogenised and re-centrifuged as before. The supernatant was stored on ice and pellets re-homogenised and re-spun. Supernatants were pooled and centrifuged at 40000 g, 10 minutes, 4° C. Resultant membrane pellets were stored at −80° C. until use. For assay, membranes expressing human EP4, EP3, EP2 or EP1 receptors were incubated in Millipore (MHVBN45) plates containing assay buffer, radiolabelled [^3H]PGE2 and 0.1 to 10 000 nM concentrations of compounds. Incubations were performed at suitable temperatures and for suitable times to allow equilibrium to be reached. Non-specific binding was determined in the presence of 10 uM PGE2. Bound and free radiolabel was separated by vacuum manifold filtration using appropriate wash buffers, and bound radiolabel was determined by scintillation counting. Constituents of each of the buffers are included in table 1 below. […] Raven Press, New York, 2nd edition.

human EP2 receptor = molecular target: T2, human EP2 receptor (Homo sapiens, UniProt P43116); assay: Binding ability to human EP receptors ([3H]PGE2 displacement), EP2; details: membranes expressing human EP2; [3H]PGE2 3 nM; Cheng-Prusoff; read-out: pKi (M) EP2 (converted)
T2 construct: expressed in transfected cells
T2 sequence (P43116 whole entry): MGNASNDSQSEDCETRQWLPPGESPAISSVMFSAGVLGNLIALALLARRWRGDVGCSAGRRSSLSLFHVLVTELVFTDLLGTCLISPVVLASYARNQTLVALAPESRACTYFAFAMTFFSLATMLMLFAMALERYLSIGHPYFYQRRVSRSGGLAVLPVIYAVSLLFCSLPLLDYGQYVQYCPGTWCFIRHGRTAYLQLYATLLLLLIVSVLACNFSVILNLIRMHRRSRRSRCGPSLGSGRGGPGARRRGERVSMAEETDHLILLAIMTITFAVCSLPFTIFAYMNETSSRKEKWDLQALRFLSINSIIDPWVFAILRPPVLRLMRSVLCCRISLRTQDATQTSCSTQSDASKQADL
Protocol: as §1

[1] = molecular target: T3, human EP2 prostanoid receptors (Homo sapiens, UniProt P43116); assay: Agonist activity at recombinant human EP2 prostanoid receptors (cAMP in HEK-293 clones); format: cell-based; details: for EC50: HEK-293 stably transfected with human EP2, cAMP accumulation, read-out: pEC50 EP2 (converted); for activity (EP2 part): functional classification at EP2
T3 construct: expressed in transfected cells; host or cells: HEK-293
T3 sequence (P43116 whole entry): as above
Protocol: Culture media was Minimal essential media (MEM), supplemented with 10% foetal bovine serum, 100 U/ml penicillin, […] streptomycin, 2.5 μg/ml fungizone, 2mM glutamine. Cells were cultured to confluency (3-4 days) prior to use. Culture media was removed, and confluent cells washed three times in MEM. […] Cells were then stimulated by the addition of 25 μl of PGE2 or agonists prepared in assay buffer. In antagonist studies, cells were pre-incubated with compounds for 30 minutes prior to PGE2-mediated stimulation Plates were incubated for 15 min at 37° C., before termination of the reaction by the addition of 25 μl 1M HCl. The plate was then frozen at -20° C. overnight before determination of cAMP concentration. Stimulated cAMP levels were determined by radioligand displacement binding. In brief, plates were thawed rapidly in a waterbath, and the samples neutralised by the addition of 25 μl 1M NaOH. 30 μl was transferred to Millipore plates pre-coated with 0.5% Polyethylenimine (PEI). Samples were diluted by addition of 90 μl cAMP determination buffer (50 mM Tris, 5 mM EDTA, pH 7.0). […] 15 μl of 2 nM (final concentration) [^3H] cAMP, and 15 μl of 3'5'-cAMP protein kinase (8 μg/well final concentration) prepared in cAMP determination buffer containing 0.1% BSA, were added to each well. Plates were incubated on ice for 2 hours, before bound and free radiolabel were separated by vacuum filtration harvesting using the Millipore vacuum manifold, using ice cold water as the termination buffer. The sealing mat was removed from the Millipore plates, and the filters allowed to dry overnight. 50 μl Microscint 0 (Packard Bioscience) was added to each well, and the plate counted using the Micro-Beta Trilux topcount ^3H program. cAMP accumulation was determined from the standard curve, and values calculated in pmoles cAMP/well. Antagonists affinities (pA2 values) were determined assuming a slope of unity and the […]-Schild equation, where pA2=log [concentration ratio-1]-log[antagonist].

human EP4 receptor = molecular target: T4, human EP4 receptor (Homo sapiens, UniProt P35408); assay: Binding ability to human EP receptors ([3H]PGE2 displacement), EP4; details: membranes expressing human EP4; [3H]PGE2 1 nM; Cheng-Prusoff; read-out: pKi (M) EP4 (converted)
T4 construct: expressed in transfected cells
T4 sequence (P35408 whole entry): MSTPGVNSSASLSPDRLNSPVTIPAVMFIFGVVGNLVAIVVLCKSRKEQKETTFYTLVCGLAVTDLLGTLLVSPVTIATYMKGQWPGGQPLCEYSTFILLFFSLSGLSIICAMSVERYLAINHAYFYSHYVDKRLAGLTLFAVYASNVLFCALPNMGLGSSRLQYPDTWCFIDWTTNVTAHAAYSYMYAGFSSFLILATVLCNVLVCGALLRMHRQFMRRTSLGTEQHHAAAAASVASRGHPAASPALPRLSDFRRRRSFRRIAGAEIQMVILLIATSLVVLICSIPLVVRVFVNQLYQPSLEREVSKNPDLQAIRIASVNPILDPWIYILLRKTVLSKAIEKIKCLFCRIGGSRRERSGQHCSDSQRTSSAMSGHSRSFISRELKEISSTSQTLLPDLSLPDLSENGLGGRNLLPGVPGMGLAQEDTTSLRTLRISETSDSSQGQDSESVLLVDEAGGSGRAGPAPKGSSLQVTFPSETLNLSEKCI
Protocol: as §1

Structure (SMILES) | Ki (human EP3 receptor) [M] | Ki (human EP2 receptor) [M] | EC50 [1] [µM] | activity (EP2 part) [1] | Ki (human EP4 receptor) [M]
O=C(O)c1cccc(CNC(=O)c2ccc(-c3ccccc3)o2)c1 [Compound 57, 3-{[(5-Phenyl-furan-2-carbonyl)-amino]-methyl}-benzoic acid] | > 1e-05 | < 1e-05 | < 1 | EP2 Agonist | > 1e-05
O=C(O)/C=C/c1cccc(NC(=O)c2ccc(-c3ccc(F)cc3)o2)c1 [Compound 71, 3-(3-{[5-(4-Fluoro-phenyl)-furan-2-carbonyl]-amino}-phenyl)-acrylic acid] | > 1e-05 | < 1e-07 | – | EP2 agonist | > 1e-05
O=C(Nc1cccc(Cc2nnn[nH]2)c1)c1ccc(-c2cccc(Cl)c2)o1 [Compound 81, 5-(3-Chloro-phenyl)-furan-2-carboxylic acid [3-(1H-tetrazol-5-ylmethyl)-phenyl]-amide] | > 1e-05 | < 1e-07 | < 0.1 | EP2 Agonist | > 1e-05
O=C(Nc1cccc(Cc2nnn[nH]2)c1)c1ccc(-c2cc(Cl)cc(Cl)c2)o1 [Compound 82, 5-(3,5-Dichloro-phenyl)-furan-2-carboxylic acid [3-(1H-tetrazol-5-ylmethyl)-phenyl]-amide] | > 1e-05 | < 1e-07 | < 0.1 | EP2 Agonist | > 1e-05
O=C(Nc1cccc(Cc2nnn[nH]2)c1)c1ccc(-c2ccc(F)cc2)o1 [Compound 85, 5-(4-Fluoro-phenyl)-furan-2-carboxylic acid [3-(1H-tetrazol-5-ylmethyl)-phenyl]-amide] | > 1e-05 | < 1e-07 | < 0.1 | EP2 Agonist | > 1e-05
O=C(Nc1cccc(Cc2nnn[nH]2)c1)c1ccc(-c2ccc(Cl)cc2)o1 [Compound 87, 5-(4-Chloro-phenyl)-furan-2-carboxylic acid [3-(1H-tetrazol-5-ylmethyl)-phenyl]-amide] | > 1e-05 | < 1e-07 | < 0.1 | EP2 Agonist | > 1e-05
O=C(Nc1cccc(/C=C/c2nnn[nH]2)c1)c1ccc(-c2ccccc2)o1 [Compound 89, 5-Phenyl-furan-2-carboxylic acid {3-[2-(1H-tetrazol-5-yl)-vinyl]-phenyl}-amide] | > 1e-05 | < 1e-07 | < 0.1 | EP2 Agonist | > 1e-05
O=C(Nc1cccc(/C=C/c2nnn[nH]2)c1)c1ccc(-c2cccc(Cl)c2)o1 [Compound 90, 5-(3-Chloro-phenyl)-furan-2-carboxylic acid {3-[2-(1H-tetrazol-5-yl)-vinyl]-phenyl}-amide] | > 1e-05 | < 1e-07 | < 0.1 | EP2 Agonist | > 1e-05
O=C(Nc1cccc(Cc2nnn[nH]2)c1)c1cccc(-c2ccccc2)n1 [Compound 92, 6-Phenyl-pyridine-2-carboxylic acid [3-(1H-tetrazol-5-ylmethyl)-phenyl]-amide] | > 1e-05 | < 1e-06 | < 0.1 | EP2 Agonist | > 1e-05
O=C(Nc1cccc(Cc2nnn[nH]2)c1)c1cccc(-c2ccc(F)cc2)n1 [Compound 93, 6-(4-Fluoro-phenyl)-pyridine-2-carboxylic acid [3-(1H-tetrazol-5ylmethyl)-phenyl]-amide] | > 1e-05 | < 1e-07 | < 0.1 | EP2 Agonist | > 1e-05
O=C(Nc1cccc(Cc2nnn[nH]2)c1)c1cccc(-c2cccc(F)c2)n1 [Compound 94, 6-(3-Fluoro-phenyl)-pyridine-2-carboxylic acid [3-(1H-tetrazol-5ylmethyl)-phenyl]-amide] | > 1e-05 | < 1e-07 | < 0.1 | EP2 Agonist | > 1e-05

Now from value to compound:

Ki (human EP3 receptor) [M] | Ki (human EP2 receptor) [M] | EC50 [1] [µM] | activity (EP2 part) [1] | Ki (human EP4 receptor) [M] | Structure (SMILES)
> 1e-05 | < 1e-06 | < 1 | EP2 agonist | > 1e-05 | O=C(O)Cc1cccc(NC(=O)c2ccc(-c3ccc4[nH]ccc4c3)o2)c1 [Compound 41]
> 1e-05 | < 1e-06 | < 0.1 | EP2 agonist | > 1e-05 | O=C(O)Cc1cccc(NC(=O)c2ccc(-c3ccc(F)cc3)o2)c1 [Compound 42, (3-{[5-(4-Fluoro-phenyl)-furan-2-carbonyl]-amino}-phenyl)-acetic acid]
> 1e-05 | < 1e-06 | < 0.1 | EP2 agonist | > 1e-05 | O=C(O)Cc1cccc(NC(=O)c2cc(-c3ccccc3)ccc2Cl)c1 [Compound 44, {3-[(4-Chloro-biphenyl-3-carbonyl)-amino]-phenyl}-acetic acid]
> 1e-05 | < 1e-06 | < 0.1 | EP2 agonist | > 1e-05 | O=C(O)Cc1cccc(NC(=O)c2cccc(-c3ccccc3)n2)c1 [Compound 45, {3-[(6-Phenyl-pyridine-2-carbonyl)-amino]-phenyl}-acetic acid]
> 1e-05 | < 1e-06 | < 0.1 | EP2 agonist | > 1e-05 | O=C(O)Cc1cccc(NC(=O)c2cccc(-c3ccccc3)c2)c1 [Compound 49, {3-[(Biphenyl-3-carbonyl)-amino]-phenyl}-acetic acid]
> 1e-05 | < 1e-06 | < 0.1 | EP2 agonist | > 1e-05 | O=C(O)Cc1cccc(NC(=O)c2cc(-c3ccccc3)ccc2F)c1 [Compound 51, {3-[(4-Fluoro-biphenyl-3-carbonyl)-amino]-phenyl}-acetic acid]
> 1e-05 | < 1e-06 | < 0.1 | EP2 agonist | > 1e-05 | O=C(O)Cc1cccc(NC(=O)c2cc(F)cc(-c3ccccc3)c2)c1 [Compound 52, {3-[(5-fluoro-biphenyl-3-carbonyl)-amino]-phenyl}-acetic acid]
> 1e-05 | < 1e-06 | < 1 | EP2 agonist | > 1e-05 | O=C(O)Cc1cccc(NC(=O)c2csc(-c3ccccc3)n2)c1 [Compound 54, {3-[(2-Phenyl-thiazole-4-carbonyl)-amino]-phenyl}-acetic acid]
> 1e-05 | < 1e-06 | < 0.1 | EP2 agonist | > 1e-05 | O=C(O)CCc1cccc(NC(=O)c2ccc(-c3ccccc3)o2)c1 [Compound 62, 3-{3-[(5-Phenyl-furan-2-carbonyl)-amino]-phenyl}-propionic acid]
> 1e-05 | < 1e-05 | < 10 | – | > 1e-05 | O=C(Nc1cccc(CCO)c1)c1ccc(-c2ccccc2)o1 [Compound 74]
